The supplement of paper PMC12592484

Assays:
Test in all cases: drug sensitivity score (DSS2, normalised partial AUC of dose-response, 72 h CellTiter-Glo viability) (DSS (dimensionless)); higher = more sensitive (stronger growth inhibition / cytotoxicity); extreme values may be limits of the assay
[1] = test system: 22Rv1
In short: (§1)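 Viability of low-passage primary prostate cancer-associated fibroblasts, PF179T, WPMY-1, LNCaP and 22Rv1 cells was read by CellTiter-Glo 2.0 luminescence 72 h after seeding onto compounds pre-dispensed in 384-well plates at five doses over a 10,000-fold range. Readings were scaled between vehicle and positive-control wells. Sensitivity is reported as a drug sensitivity score from BREEZE, namely a partial area under the fitted logistic curve divided by the log of its upper asymptote, where higher means more sensitive.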

[2] = test system: CAF#1 (primary prostate cancer-associated fibroblasts of myCAF-like type)
In short: as §1

[3] = test system: CAF#2 (primary prostate cancer-associated fibroblasts of iCAF-like type)
In short: as §1

[4] = test system: CAF#3 (primary prostate cancer-associated fibroblasts of myCAF-like type)
In short: as §1

[5] = test system: CAF#4 (primary prostate cancer-associated fibroblasts of iCAF-like type)
In short: as §1

[6] = test system: CAF#5 (primary prostate cancer-associated fibroblasts of myCAF-like type)
In short: as §1

[7] = test system: CAF#6 (primary prostate cancer-associated fibroblasts of iCAF-like type)
In short: as §1

[8] = test system: CAF#7 (primary prostate cancer-associated fibroblasts of myCAF-like type)
In short: as §1

[9] = test system: LNCAP
In short: as §1

[10] = test system: PF179T
In short: as §1

[11] = test system: WPMY-1
In short: as §1

SMILES	drug sensitivity score [1]	drug sensitivity score [2]	drug sensitivity score [3]	drug sensitivity score [4]	drug sensitivity score [5]	drug sensitivity score [6]	drug sensitivity score [7]	drug sensitivity score [8]	drug sensitivity score [9]	drug sensitivity score [10]	drug sensitivity score [11]
O=C(O)CC[C@H]1CC[C@@](c2cc(F)ccc2F)(S(=O)(=O)c2ccc(Cl)cc2)CC1 [MK-0752] (tested concentration range 0.1-1000 nM)	0	0	0	0	0	0	0	0	0	0	0
NC1(c2ccc(-c3nc4ccn5c(=O)[nH]nc5c4cc3-c3ccccc3)cc2)CCC1 [MK-2206] (tested concentration range 0.1-1000 nM)	5.8	2.7	2.6	4	2	3	3.2	1.8	11.1	1.8	2.4
O=C(c1cccc(Cl)c1F)N1CCN(Cc2cccc(Nc3nccs3)n2)CC1 [MK-8745] (tested concentration range 1-10000 nM)	4	2.6	4.3	6.8	1.1	2.8	3.4	2.6	14.7	5	7.6
O=C(Nc1cccc(NC(=O)c2cccc(O)c2O)c1)c1cccc(O)c1O [MST-312] (tested concentration range 1-10000 nM)	10.3	12.8	15.3	8.9	12.9	13.5	10.5	11.6	15.6	10.7	10.2
CNC(=O)[C@@H](NC(=O)[C@H](CC(C)C)[C@H](O)C(=O)NO)C(C)(C)C [Marimastat] (tested concentration range 1-10000 nM)	0	0	0	0.6	0	0	0	0	0	0	0.4
Cc1ccc(NC(=O)c2ccc(CN3CCN(C)CC3)cc2)cc1Nc1nc(-c2cccnc2)cs1 [Masitinib] (tested concentration range 1-10000 nM)	5.3	4.1	5.3	0.6	7.6	3.1	1.6	1.9	4.3	2.4	5.3
CCN(CC)CCCC(C)Nc1c2ccc(Cl)cc2nc2ccc(OC)cc12 (stereo unspecified) [Mepacrine] (tested concentration range 5-50000 nM)	17.3	9.1	14.9	11.3	14.2	13.4	9.9	12.6	19	13.7	19.6
S=c1[nH]cnc2nc[nH]c12 [Mercaptopurine] (tested concentration range 1-10000 nM)	2.7	0	0.1	0.1	2.8	0	1.4	0.1	0.2	0	9
Cc1ccc(C(=O)Nc2ccc(Oc3cc4cnn(C)c4cc3-c3cn[nH]c3)c(F)c2)c(=O)n1-c1ccc(F)cc1 [Merestinib] (tested concentration range 0.1-1000 nM)	0	3	5.6	3	4.4	3.8	3.5	3.9	0	5.3	4.3
CN(C)C(=N)NC(=N)N [Metformin] (tested concentration range 10-100000 nM)	0	0	0	0	0	0	0	0	0	0	0
CN(Cc1cnc2nc(N)nc(N)c2n1)c1ccc(C(=O)N[C@@H](CCC(=O)O)C(=O)O)cc1 [Methotrexate] (tested concentration range 0.5-5000 nM)	0	0	0	0	1.1	0	0.8	0	16.6	0	17.4
C[C@H]1C[C@@H]2[C@H]([C@@H](O)C[C@@]3(C)[C@H]2CC[C@]3(O)C(=O)CO)[C@@]2(C)C=CC(=O)C=C12 [Methylprednisolone] (tested concentration range 1-10000 nM)	0	0	0	1.9	0	0	0	1.2	0	0	0
CO[C@@H]1[C@H](N(C)C(=O)c2ccccc2)C[C@H]2O[C@]1(C)n1c3ccccc3c3c4c(c5c6ccccc6n2c5c31)C(=O)NC4 [Midostaurin] (tested concentration range 1-10000 nM)	0	18.7	20.7	12.5	16.1	16.5	18.3	19.8	4.2	18.4	11.9
CO[C@@]12[C@H](COC(N)=O)C3=C(C(=O)C(C)=C(N)C3=O)N1C[C@@H]1N[C@@H]12 [Mitomycin C] (tested concentration range 1-10000 nM)	0	0	0.1	0	0	0	0	0	0.7	0	0
Clc1ccc(C(c2ccccc2Cl)C(Cl)Cl)cc1 (stereo unspecified) [Mitotane] (tested concentration range 1-10000 nM)	0	0	0	0.2	0	0	0	0	1.8	0	0
O=C1c2c(O)ccc(O)c2C(=O)c2c(NCCNCCO)ccc(NCCNCCO)c21 [Mitoxantrone] (tested concentration range 0.1-1000 nM)	10.7	3.7	8.9	1.2	5	6.6	4	7.2	14.7	9.9	15
CCS(=O)(=O)Nc1ccc(Oc2ccc(F)cc2F)c(-c2cn(C)c(=O)c3[nH]ccc23)c1 [Mivebresib] (tested concentration range 1-10000 nM)	23.5	19	19.7	19.3	10.7	15.5	13.3	11.4	30.7	11.1	22.9
Nc1ccccc1NC(=O)c1ccc(CNc2nccc(-c3cccnc3)n2)cc1 [Mocetinostat] (tested concentration range 1-10000 nM)	14.1	9.4	11.3	9.2	8.4	11.8	7.7	9.4	13.3	13.5	12
CCNC(=O)C[C@@H]1N=C(c2ccc(Cl)cc2)c2cc(OC)ccc2-n2c(C)nnc21 [Molibresib] (tested concentration range 1-10000 nM)	8.9	4.6	5.1	6.6	3.8	2.9	2.9	2.7	12.3	2.9	6.5
N#CCNC(=O)c1ccc(-c2ccnc(Nc3ccc(N4CCOCC4)cc3)n2)cc1 [Momelotinib] (tested concentration range 1-10000 nM)	0.9	3.9	4.6	4.4	2.8	4.1	2.8	3.1	5	2.3	6.1
CC1(C)CNc2cc(NC(=O)c3cccnc3NCc3ccncc3)ccc21 [Motesanib] (tested concentration range 1-10000 nM)	0	1.4	2.7	5.9	0.7	2.4	2.1	3.7	5.1	0	0
CCCN(CCC)C(=O)C1=Cc2ccc(-c3ccc(C(=O)N4CCCC4)cc3)cc2N=C(N)C1 [Motolimod] (tested concentration range 1-10000 nM)	1.1	0.4	1	1.7	0	0	1.5	0	3.2	0	0.3
FC(F)(F)c1ccc(/C=C/c2nc(COc3ccc(CCCCn4ccnn4)cc3)co2)cc1 [Mubritinib] (tested concentration range 0.1-1000 nM)	5.8	0	0	0	0	0	0	0	11.7	9.7	12
Cc1cc(OCc2nnc(SC3CCCC3)n2-c2cccnc2)ccc1-c1ccc(S(C)(=O)=O)cc1 [NMS-873] (tested concentration range 1-10000 nM)	12.4	4.8	8.5	8	5.7	5.6	5.9	5.1	18.4	15	14.6
Cc1ccc(C(=O)Nc2cccc(C(F)(F)F)c2)cc1Nc1nc(-c2cccnc2)nc2c1cnn2C [NVP-BHG712] (tested concentration range 1-10000 nM)	5	0	3.2	0	1.6	1	0	0	9.6	0.6	9
CN[C@@H](C)C(=O)N[C@H](C(=O)N1CCC[C@H]1c1nc(C(=O)c2ccc(F)cc2)cs1)C1CCCCC1 [NVP-LCL161] (tested concentration range 2.5-25000 nM)	3.4	0	0.4	1.2	0.3	0	1.9	2	3.7	0	3
